{"source": "patent EP3521435A1", "about": "“A HIGH STRINGENCY SELECTION SYSTEM FOR PROTEIN EXPRESSION IN PROLINE-AUXOTROPHIC CELLS” (Bayer AG, priority 2018, dated 2019)", "key": {"[1]": {"target": "T1, murine P5CS short isoform (Mus musculus, UniProt Q9Z110)", "T1 sequence (Q9Z110 1-793 isoform Q9Z110-2)": "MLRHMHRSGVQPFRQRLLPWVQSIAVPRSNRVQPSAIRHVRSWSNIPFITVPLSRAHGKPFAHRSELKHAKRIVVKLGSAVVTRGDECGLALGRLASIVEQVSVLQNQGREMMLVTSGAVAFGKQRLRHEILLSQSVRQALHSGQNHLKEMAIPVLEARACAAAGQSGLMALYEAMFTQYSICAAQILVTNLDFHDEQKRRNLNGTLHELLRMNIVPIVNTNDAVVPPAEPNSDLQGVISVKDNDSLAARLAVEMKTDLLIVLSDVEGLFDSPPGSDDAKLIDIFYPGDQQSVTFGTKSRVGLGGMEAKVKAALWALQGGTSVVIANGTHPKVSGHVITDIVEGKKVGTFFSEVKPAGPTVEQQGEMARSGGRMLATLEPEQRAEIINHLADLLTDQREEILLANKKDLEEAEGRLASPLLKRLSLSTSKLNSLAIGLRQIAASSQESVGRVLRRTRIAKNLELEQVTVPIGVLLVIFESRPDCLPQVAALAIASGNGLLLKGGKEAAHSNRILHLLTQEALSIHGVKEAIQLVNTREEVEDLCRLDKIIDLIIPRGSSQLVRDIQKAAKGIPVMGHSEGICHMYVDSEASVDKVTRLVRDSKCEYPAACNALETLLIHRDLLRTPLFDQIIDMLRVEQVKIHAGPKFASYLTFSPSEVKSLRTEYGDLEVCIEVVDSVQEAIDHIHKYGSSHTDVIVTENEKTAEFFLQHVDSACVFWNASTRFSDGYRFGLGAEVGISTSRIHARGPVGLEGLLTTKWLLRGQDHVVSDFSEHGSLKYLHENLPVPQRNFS", "details": "Hu et al.; cited from earlier work"}, "CHO-K1 cells": {"tested_on": "CHO-K1 cells", "assay": "Cell viability post-transfection of transfected cell populations under selection conditions", "format": "cell-based, Chinese hamster", "protocol": "To efficiently test the impact of different procedures on improving selection stringency, experimental testing in stable cell populations was performed. As test molecules, enhanced green fluorescent protein (GFP) as well as a human IgG1 were chosen. CHO-K1 cells adapted to growth in suspension in defined medium were obtained from SAFC and cultivated in EX-CELL CD CHO Fusion medium (SAFC 14365C). Custom-made EX-CELL CD CHO Fusion medium without L-Proline (Pro) and without L-Ornithine (Orn) (\"proline-free medium\") was obtained from SAFC. The expression vector system was based on modified versions of \"CET 1019 AS-puro-SceI\" and \"CET 1019 AD-puro-SceI\" for GFP and human IgG1, respectively, from Merck-Millipore, containing the Puromycin selection marker (Puromycin N-acetyl-transferase) known to exert a high selection stringency. To minimize variations in cell populations derived from using different transfections or different vectors, the first series of experiments were conducted using vectors into which a P5CS expression cassette was cloned upstream of a UCOE element, in addition to the Puromycin selection marker present downstream of a gene of interest. This way, it was possible to pool different transfections using the same vector to obtain a common starting point, and split the mixture according to different selection conditions, minimizing any variations that are not due to selection conditions themselves. Expression of long and short isoform of murine P5CS (Protein: Delta-1-pyrroline-5-carboxylate synthase; Gene: Aldh18a1; UniProtKB accession number: Q9Z110-1 & Q9Z110-2) was driven by a SV40 promoter. A SV40 polyadenylation sequence was used at the 3' end of the gene. More details can be found in Table 1. Typically, CHO cells were cultivated in EX-CELL CD CHO Fusion medium containing 6 mM GlutaMAX (Thermo Fisher, 35050-38) (\"CD-Fusion medium\") at 37 °C with 5% CO2. Cells were grown to logarithmic phase under shaking conditions for transfections. 1e7 cells/cuvette were transfected using nucleofection (Amaxa Nucleofector II, following the manufacturer's recommendations) with 5 µg of linearized DNA. After transfection, cells were taken up in 1 ml medium and transferred into 1 well of a 6 well microtiter plate (MTP) already containing 1 ml medium. The cells were incubated for 24 h without shaking, after which 9 ml medium were added and cells were washed (either in standard or proline-free medium). Multiple transfections were pooled, if applicable. Cells were adjusted to 2e5 viable cells/ml and 10 ml were transferred to T-25 flasks. Reference cell populations were selected using 10 µg/ml Puromycin in CD-Fusion medium. For P5CS-based selection, EX-CELL CD CHO Fusion medium (custom-made, SAFC) containing 6 mM GlutaMAX without proline and without ornithine was used (\"proline-free\" or \"CD-Fusion w/o Pro\" medium), with or without additional selection pressure.\nCell viability of the different populations was monitored over time. As soon as cell populations appeared to recover from selection pressure, cells were transferred to Shake Flask or TubeSpins for expansion in suspension under shaking conditions. Subsequently, stable cell populations transfected with IgG were seeded at 2e5 viable cells/ml for batch fermentation without selection pressure (i.e. standard CD-Fusion medium containing proline and no other selective agents). The cells were cultivated for 5-10 days, viable cell densities and productivity were monitored over time. IgG titers were determined using Poros A-HPLC method. Typically, final batch titers were recorded at a time point at which majority of cultures had around 70% viability. Stable cell populations transfected with GFP vector were subjected to analysis by flow cytometry using Guava easyCyte 8HT Benchtop Flow Cytometer (Millipore). 250 µl of cell culture were transferred to 96 MTP and washed with PBS. Dead cells were excluded from analysis using propidium iodide (PI). […]"}, "[2]": {"details": "MOCK, CD-Fusion w/o Pro + 5 mM Orn"}}, "data": [{"smiles": "NCCC[C@H](N)C(=O)O", "note": "[Orn, L-Ornithine]", "values": [{"measurement": "Ki", "setting": "[1]", "result": "~250", "unit": "µM"}, {"measurement": "Viability on day 12 post-transfection", "setting": "CHO-K1 cells; [2]", "result": 45, "unit": "%"}, {"measurement": "Viability on day 14 post-transfection", "setting": "CHO-K1 cells; [2]", "result": 43, "unit": "%"}, {"measurement": "Viability on day 14 post-transfection", "setting": "CHO-K1 cells; pJF1555, CD-Fusion w/o Pro + 0.2 mM Orn", "result": 83, "unit": "%"}, {"measurement": "Viability on day 14 post-transfection", "setting": "CHO-K1 cells; pJF1555, CD-Fusion w/o Pro + 0.2 mM Orn + 10 µg/ml Puromycin", "result": 73, "unit": "%"}, {"measurement": "Viability on day 12 post-transfection", "setting": "CHO-K1 cells; pJF1555, CD-Fusion w/o Pro + 0.25 mM Ornithine", "result": 88, "unit": "%"}, {"measurement": "Viability on day 12 post-transfection", "setting": "CHO-K1 cells; pJF1555, CD-Fusion w/o Pro + 0.5 mM Ornithine", "result": 87, "unit": "%"}, {"measurement": "Viability on day 14 post-transfection", "setting": "CHO-K1 cells; pJF1555, CD-Fusion w/o Pro + 1 mM Orn", "result": 87, "unit": "%"}, {"measurement": "Viability on day 14 post-transfection", "setting": "CHO-K1 cells; pJF1555, CD-Fusion w/o Pro + 1 mM Orn + 10 µg/ml Puromycin", "result": 75, "unit": "%"}, {"measurement": "Viability on day 12 post-transfection", "setting": "CHO-K1 cells; pJF1555, CD-Fusion w/o Pro + 1 mM Ornithine", "result": 91, "unit": "%"}, {"measurement": "Viability on day 12 post-transfection", "setting": "CHO-K1 cells; pJF1555, CD-Fusion w/o Pro + 2 mM Ornithine", "result": 49, "unit": "%"}, {"measurement": "Viability on day 12 post-transfection", "setting": "CHO-K1 cells; pJF1555, CD-Fusion w/o Pro + 3 mM Ornithine", "result": 36, "unit": "%"}, {"measurement": "Viability on day 12 post-transfection", "setting": "CHO-K1 cells; pJF1555, CD-Fusion w/o Pro + 4 mM Ornithine", "result": 55, "unit": "%"}, {"measurement": "Viability on day 14 post-transfection", "setting": "CHO-K1 cells; pJF1555, CD-Fusion w/o Pro + 5 mM Orn", "result": 51, "unit": "%"}, {"measurement": "Viability on day 14 post-transfection", "setting": "CHO-K1 cells; pJF1555, CD-Fusion w/o Pro + 5 mM Orn + 10 µg/ml Puromycin", "result": 13, "unit": "%"}, {"measurement": "Viability on day 12 post-transfection", "setting": "CHO-K1 cells; pJF1555, CD-Fusion w/o Pro + 5 mM Ornithine", "result": 53, "unit": "%"}, {"measurement": "concentration at which recovery kinetics were affected", "setting": "CHO-K1 cells; pJF1555, proline-free medium, Table 8", "result": "≥ 2", "unit": "mM"}]}]}
